Experimental data published in patent US6747045B2, “(Benzodioxan, benzofuran or benzopyran) derivatives having fundic relaxation properties” (Janssen Pharmaceutica N.V., priority 1997, dated 2004).

Columns and labels:
fundus of the stomach = test: Gastric tone measured by an electronic barostat in conscious dogs; type: in vivo; settings: conscious female beagle dogs; 0.63 mg/kg s.c.; 1 hour after administration of the test compound
Method: C.1. Gastric Tone Measured by an Electronic Barostat in Conscious Dogs
Gastric tone cannot be measured by manometric methods. Therefore an electronic barostat was used. This allows the study of the physiological pattern and regulation of gastric tone in conscious dogs and the influence of test-compounds on this tone.
The barostat consists of an air injection system which is connected by a double-lumen 14-French polyvinyl tube to an ultrathin flaccid polyethylene bag (maximal volume: ±700 ml). Variations in gastric tone were measured by recording changes in the volume of air within an intragastric bag, maintained at a constant pressure, or at varying pressure levels. The barostat maintains a constant pressure (preselected) within a flaccid air-filled bag introduced into the stomach, changing the volume of air within the bag by an electronic feedback system.
Thus, the barostat measures gastric motor activity (contraction or relaxation) as changes in intragastric volume (decrease or increase resp.) at a constant intragastric pressure. The barostat consists of a strain gauge linked by an electronic relay to an air injection-aspiration system. Both the strain gauge and the injection system are connected by means of double-lumen polyvinyl tube to an ultrathin polyethylene bag. A dial in the barostat allows selection of the pressure level to be maintained within the intragastric bag.
Female beagle dogs, weighing 7-17 kg, were trained to stand quietly in Pavlov frames. They were implanted with a gastric cannula under general anaesthesia and aseptic precautions. After a median laparotomy, an incision was made through the gastric wall in longitudinal direction between the greater and the lesser curve, 2 cm above the nerves of Latarjet. The cannula was secured to the gastric wall by means of a double purse string suture and brought out via a stub wound at the left quadrant of the hypochondrium. Dogs were allowed a recovery period of two weeks.
At the beginning of the experiment, the cannula was opened in order to remove any gastric juice or food remnants. If necessary, the stomach was cleansed with 40 to 50 ml lukewarm water. The ultrathin bag of the barostat was positioned into the fundus of the stomach through the gastric cannula. In order to ensure easy unfolding of the intragastric bag during the experiment, a volume of 150-200 ml was injected into the bag by raising the pressure to maximally 14 mm Hg (about 1.87 kPa) very briefly. This procedure was repeated twice. A stabilisation period of 1 hour was allowed. […]

basilar arteries = test: Vasoconstrictive activity on basilar artery; design: species or system pigs; settings: Sus scrofa; pig basilar artery segments, organ bath; response relative to serotonin 3×10^−7 M; estimated from three preparations; read-out: ED50-value (concentration causing 50% of the constrictive response obtained with serotonin)
Method: C.2 Vasoconstrictive Activity on Basilar Artery
Segments of basilar arteries taken from pigs (anaesthetised with sodium pentobarbital) were mounted for recording of isometric tension in organ baths. The preparations were bathed in Krebs-Henseleit solution. The solution was kept at 37° C. and gassed with a mixture of 95% O2-5% CO2. The preparations were stretched until a stable basal tensions of 2 grams was obtained.
The preparations were made to constrict with serotonin (3×10^−7 M). The response to the addition of serotonin was measured and subsequently the serotonin was washed away. This procedure was repeated until stable responses were obtained. Subsequently the test compound was administered to the organ bath and the constriction of the preparation was measured. This constrictive response was expressed as a percentage of the response to serotonin as measured previously.

melting point [°C] | EC50 (basilar arteries) [nM] | Molecule | % effect (percentual effect on relaxation of the fundus) (fundus of the stomach) [%]
226.3 | > 1000 | O=C(O)C(=O)O.O=C1NCCCN1CCCNCC1CCc2ccccc2O1 (racemic) [Compound 1, (±)-1-[3-[[(3,4-dihydro-2H-1-benzopyran-2-yl)methyl]amino]-propyl]-tetrahydro-2(1H)-pyrimidinone ethanedioate(1:1)] | 23.0
94.7 | > 1000 | O=C1NCCCN1CCCN(Cc1ccccc1)CC1CCc2ccccc2O1 (racemic) [Compound 13, (±)-1-[3-[[(3,4-dihydro-2H-1-benzopyran-2-yl)methyl](phenylmethyl)amino]propyl]-tetrahydro-2(1H)-pyrimidinone] | 0.4
217.6 | > 1000 | O=C(O)C(=O)O.S=C1NCCCN1CCCNCC1CCc2ccccc2O1 (racemic) [Compound 14, (±)-1-[3-[[(3,4-dihydro-2H-1-benzopyran-2-yl)-methyl]amino]propyl]tetrahydro-2(1H)-pyrimidinethione ethanedioate(1:1)] | –
177.5 | 590 | N#CN=C1NCCCN1CCCNCC1CCc2ccccc2O1 (racemic) [Compound 21, (±)-[1-[3-[[(3,4-dihydro-2H-1-benzopyran-2-yl)-methyl]-amino]propyl]hexahydro-2-pyrimidinylidene]cyanamide ethanedioate (1:1)] | –
– | > 1000 | NC(=O)Nc1nccn1C1CCN(CC2CCc3ccccc3O2)CC1 (racemic) [Compound 66, (±)-[1-[1-[(3,4-dihydro-2H-1-benzopyran-2-yl)methyl]-4-piperidinyl]-1H-imidazol-2-yl]urea] | –
– | > 1000 | O=C(O)C(=O)O.O=C1NCCCN1CCCNC[C@H]1CCc2ccccc2O1 [Compound 3, (R)-1-[3-[[(3,4-dihydro-2H-1-benzopyran-2-yl)methyl]amino]propyl]-tetrahydro-2(1H)-pyrimidinone ethanedioate (1:1)] | 36.2
– | > 1000 | N#CNc1nccn1C1CCN(CC2CCc3ccccc3O2)CC1 (stereo not drawn) [Compound 59, [1-[1-[(3,4-dihydro-2H-1-benzopyran-2-yl)methyl]-4-piperidinyl]1H-imidazol-2-yl]cyanamide] | –
– | – | (RR,SS)-1-[1-[2-(3,4-dihydro-2H-1-benzopyran-2-yl)-2-hydroxyethyl]-4-piperidinyl]-2-imidazolidinone [Compound 20] | 9.5
